We go through 22 compounds from patent US20230374015A1, “INHIBITORS OF FIBROBLAST GROWTH FACTOR RECEPTOR KINASES” (Kinnate Biopharma Inc., priority 2020, published 2023).

pIC50: −log10 of the molar value.

The target in this assay is FGFR2 (Homo sapiens, UniProt P21802). In words: FGFR2 Kinase Protocol - Condition 1 (Reaction Biology HotSpot radiometric kinase assay). It counts as biochemical. The settings on record: 20-min incubation of compound with kinase before ATP; poly[Glu:Tyr] (4:1) 0.2 mg/ml; ATP 100 micromolar; 2 hr room temperature. The procedure:
Example 1: FGFR2 Kinase Protocol—Condition 1
The Reaction Biology HotSpot assay platform (http://www.reactionbiology.com) was used to measure kinase/inhibitor interactions as described previously (Anastassiadis et al., 2011). In brief, for each reaction, kinase and substrate were mixed in a buffer containing 20 mM HEPES (pH 7.5), 10 mM MgCl2, 1 mM EGTA, 0.02% Brij35, 0.02 mg/mL BSA, 0.1 mM Na3VO4, 2 mM DTT, and 1% DMSO. All compounds were in powder form and freshly solubilized in DMSO for assays. Compounds were then added to each reaction mixture via acoustic dispense using an ECHO 550 nanoliter dispenser. For Human FGFR2 wildtype testing, a peptide substrate, poly[Glu:Tyr] (4:1) was used to promote the reaction at a concentration of 0.2 mg/ml. For Human FGFR2 (V564F) testing, a peptide substrate, poly[Glu:Tyr] (4:1) was used to promote the reaction at a concentration of 0.2 mg/ml. ATP concentration for all assays was maintained at 100 micromolar. Compounds were tested in 10-dose IC50 mode with a 3-fold serial dilution. After a 20-min incubation, ATP (Sigma-Aldrich, St. Louis, MO 63178) and [g33P] ATP (specific activity 10 microCi/microliter) purchased at PerkinElmer (Boston, MA, 02118 Cat #BLU 003H250UC) were added at a final total concentration of […]. Reactions were carried out at room temperature for 2 hr and spotted onto P81 ion exchange cellulose chromatography paper (Reaction Biology). Filter paper was washed in 0.75% phosphoric acid to remove unincorporated ATP. The percent remaining kinase activity relative to a vehicle-containing (DMSO) kinase reaction was calculated for each kinase/inhibitor pair. IC50 values were calculated using Dotmatics Knowledge Solutions Studies curve fitting (Dotmatics, Bishops Stortford, UK, CM23).

Sequence of FGFR2 (P21802 22-821): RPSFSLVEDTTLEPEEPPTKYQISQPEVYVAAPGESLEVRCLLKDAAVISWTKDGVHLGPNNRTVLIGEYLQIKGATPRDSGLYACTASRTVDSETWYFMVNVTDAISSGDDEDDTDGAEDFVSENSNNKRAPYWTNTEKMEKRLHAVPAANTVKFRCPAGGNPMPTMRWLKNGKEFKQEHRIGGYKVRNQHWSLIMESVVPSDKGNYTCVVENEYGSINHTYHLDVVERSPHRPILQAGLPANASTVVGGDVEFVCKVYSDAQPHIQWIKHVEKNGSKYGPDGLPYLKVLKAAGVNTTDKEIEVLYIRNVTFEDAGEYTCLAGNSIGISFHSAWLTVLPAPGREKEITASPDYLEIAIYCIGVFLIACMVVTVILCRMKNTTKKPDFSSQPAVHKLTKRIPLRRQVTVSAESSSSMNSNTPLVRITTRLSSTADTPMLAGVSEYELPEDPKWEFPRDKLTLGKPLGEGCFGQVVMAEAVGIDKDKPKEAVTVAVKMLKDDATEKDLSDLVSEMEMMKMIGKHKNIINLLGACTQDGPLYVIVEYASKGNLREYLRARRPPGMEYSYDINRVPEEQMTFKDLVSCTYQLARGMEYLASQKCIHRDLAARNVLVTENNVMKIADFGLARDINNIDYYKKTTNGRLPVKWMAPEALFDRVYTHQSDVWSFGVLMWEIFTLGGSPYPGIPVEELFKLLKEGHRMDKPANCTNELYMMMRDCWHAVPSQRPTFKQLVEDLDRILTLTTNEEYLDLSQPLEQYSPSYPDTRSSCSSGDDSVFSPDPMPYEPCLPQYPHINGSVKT

What is called pIC50 is the IC50 on a negative log10 scale, so that one unit is a factor of ten. High values mean a low IC50, low ones a high IC50. The compound `C=CC(=O)N1C[C@@H](n2nc(C#Cc3ccc4[nH]c(C)nc4c3)c3c(N)ncnc32)C[C@@H]1COC` [Example 1, 1-((2R,4S)-4-(4-amino-3-((2-methyl-1H-benzo[d]imidazol-5-yl)ethynyl)-1H-pyrazolo[3,4-d]pyrimidin-1-yl)-2-(methoxymethyl)pyrrolidin-1-yl)prop-2-en-1-one] gave a pIC50 of no less than 7.00.
`C=CC(=O)N1C[C@@H](n2nc(C#Cc3ccc4[nH]ncc4c3)c3c(N)ncnc32)C[C@@H]1COC` [Example 2, 1-((2R,4S)-4-(3-((1H-indazol-5-yl)ethynyl)-4-amino-1H-pyrazolo[3,4-d]pyrimidin-1-yl)-2-(methoxymethyl)pyrrolidin-1-yl)prop-2-en-1-one] showed a pIC50 of no less than 7.00.
The figure for `C=CC(=O)N1C[C@@H](n2nc(C#Cc3ccc4nc(C)n(C)c4c3)c3c(N)ncnc32)C[C@@H]1COC` [Example 4, 1-((2R,4S)-4-(4-amino-3-((1,2-dimethyl-1H-benzo[d]imidazol-6-yl)ethynyl)-1H-pyrazolo[3,4-d]pyrimidin-1-yl)-2-(methoxymethyl)pyrrolidin-1-yl)prop-2-en-1-one] is no less than 7.00; for `C=CC(=O)N1C[C@@H](n2nc(C#Cc3ccc4[nH]cnc4c3)c3c(N)ncnc32)C[C@@H]1COC` [Example 5, 1-((2R,4S)-4-(3-((1H-benzo[d]imidazol-5-yl)ethynyl)-4-amino-1H-pyrazolo[3,4-d]pyrimidin-1-yl)-2-(methoxymethyl)pyrrolidin-1-yl)prop-2-en-1-one] it is no less than 7.00.
Consider `C=CC(=O)N1C[C@@H](n2nc(C#Cc3ccc4c(c3)ncn4C)c3c(N)ncnc32)C[C@@H]1COC` [Example 6, 1-((2R,4S)-4-(4-amino-3-((1-methyl-1H-benzo[d]imidazol-5-yl)ethynyl)-1H-pyrazolo[3,4-d]pyrimidin-1-yl)-2-(methoxymethyl)pyrrolidin-1-yl)prop-2-en-1-one], for which the negative logarithm of the IC50 (pIC50) was no less than 7.00.
The figure for `C=CC(=O)N1CC[C@H](n2nc(C#Cc3ccc4[nH]c(C)nc4c3)c3c(N)ncnc32)C1` [Example 7, (S)-1-(3-(4-amino-3-((2-methyl-1H-benzo[d]imidazol-5-yl)ethynyl)-1H-pyrazolo[3,4-d]pyrimidin-1-yl)pyrrolidin-1-yl)prop-2-en-1-one] is no less than 7.00; for `C=CC(=O)N1C[C@@H](n2cc(C#Cc3ccc4nc(C)[nH]c4c3)c3c(N)ncnc32)C[C@@H]1COC` [Example 8, 1-[(2R,4S)-4-[4-amino-5-[2-(2-methyl-3H-1,3-benzodiazol-5-yl)ethynyl]pyrrolo[2,3-d]pyrimidin-7-yl]-2-(methoxymethyl)pyrrolidin-1-yl]prop-2-en-1-one] it is no less than 7.00; for `C=CC(=O)N1C[C@@H](n2nc(C#Cc3ccc4ncn(C)c4c3)c3c(N)ncnc32)C[C@@H]1COC` [Example 9, 1-((2R,4S)-4-(4-amino-3-((1-methyl-1H-benzo[d]imidazol-6-yl)ethynyl)-1H-pyrazolo[3,4-d]pyrimidin-1-yl)-2-(methoxymethyl)pyrrolidin-1-yl)prop-2-en-1-one] it is 6.00 to 7.00.
The figure for `C=CC(=O)N1C[C@@H](n2nc(C#Cc3ccc4[nH]nnc4c3)c3c(N)ncnc32)C[C@@H]1COC` [Example 10, 1-((2R,4S)-4-(3-((1H-benzo[d][1,2,3]triazol-5-yl)ethynyl)-4-amino-1H-pyrazolo[3,4-d]pyrimidin-1-yl)-2-(methoxymethyl)pyrrolidin-1-yl)prop-2-en-1-one] is no less than 7.00; for `C=CC(=O)N1CC[C@H](n2cc(C#Cc3ccc4[nH]c(C)nc4c3)c3c(N)ncnc32)C1` [Example 11, (S)-1-(3-(4-amino-5-((2-methyl-1H-benzo[d]imidazol-5-yl)ethynyl)-7H-pyrrolo[2,3-d]pyrimidin-7-yl)pyrrolidin-1-yl)prop-2-en-1-one] it is no less than 7.00; for `C=CC(=O)N1C[C@@H](n2nc(C#Cc3c(F)cc4nc(C)n(C)c4c3F)c3c(N)ncnc32)C[C@@H]1COC` [Example 13, 1-((2R,4S)-4-(4-amino-3-((5,7-difluoro-1,2-dimethyl-1H-benzo[d]imidazol-6-yl)ethynyl)-1H-pyrazolo[3,4-d]pyrimidin-1-yl)-2-(methoxymethyl)pyrrolidin-1-yl)prop-2-en-1-one] it is no less than 7.00.
The figure for `C=CC(=O)N1C[C@@H](n2nc(C#Cc3ccc4cn[nH]c4c3)c3c(N)ncnc32)C[C@@H]1COC` [Example 14, 1-((2R,4S)-4-(3-((1H-indazol-6-yl)ethynyl)-4-amino-1H-pyrazolo[3,4-d]pyrimidin-1-yl)-2-(methoxymethyl)pyrrolidin-1-yl)prop-2-en-1-one] is no less than 7.00; for `C=CC(=O)N1C[C@@H](n2nc(C#Cc3ccc4c(c3)nc(C)n4C3CC3)c3c(N)ncnc32)C[C@@H]1COC` [Example 15, 1-((2R,4S)-4-(4-amino-3-((1-cyclopropyl-2-methyl-1H-benzo[d]imidazol-5-yl)ethynyl)-1H-pyrazolo[3,4-d]pyrimidin-1-yl)-2-(methoxymethyl)pyrrolidin-1-yl)prop-2-en-1-one] it is no less than 7.00.
`C=CC(=O)N1C[C@@H](n2nc(C#Cc3ccc4c(c3)nc(C)n4C3CC3)c3c(N)nccc32)C[C@@H]1COC` [Example 17, 1-((2R,4S)-4-(4-amino-3-((1-cyclopropyl-2-methyl-1H-benzo[d]imidazol-5-yl)ethynyl)-1H-pyrazolo[4,3-c]pyridin-1-yl)-2-(methoxymethyl)pyrrolidin-1-yl)prop-2-en-1-one] showed a negative logarithm of the IC50 (pIC50) of no less than 7.00.
Compound `C=CC(=O)N1C[C@@H](n2nc(C#Cc3c(F)cc4nc(C)[nH]c4c3F)c3c(N)nccc32)C[C@@H]1COC` [Example 18, 1-((2R,4S)-4-(4-amino-3-((5,7-difluoro-2-methyl-1H-benzo[d]imidazol-6-yl)ethynyl)-1H-pyrazolo[4,3-c]pyridin-1-yl)-2-(methoxymethyl)pyrrolidin-1-yl)prop-2-en-1-one] had a pIC50 of no less than 7.00.
The figure for `C=CC(=O)N1C[C@@H](n2nc(C#Cc3ccc4c(c3)ncn4C)c3c(N)nccc32)C[C@@H]1COC` [Example 19, 1-((2R,4S)-4-(4-amino-3-((1-methyl-1H-benzo[d]imidazol-5-yl)ethynyl)-1H-pyrazolo[4,3-c]pyridin-1-yl)-2-(methoxymethyl)pyrrolidin-1-yl)prop-2-en-1-one] is no less than 7.00; for `C=CC(=O)N1C[C@@H](n2nc(C#Cc3ccc4c(c3)nc(C)n4CC)c3c(N)ncnc32)C[C@@H]1COC` [Example 20, 1-((2R,4S)-4-(4-amino-3-((1-ethyl-2-methyl-1H-benzo[d]imidazol-5-yl)ethynyl)-1H-pyrazolo[3,4-d]pyrimidin-1-yl)-2-(methoxymethyl)pyrrolidin-1-yl)prop-2-en-1-one] it is no less than 7.00.
The figure for `C=CC(=O)N1C[C@@H](n2nc(C#Cc3ccc4c(c3)nc(C)n4CC)c3c(N)nccc32)C[C@@H]1COC` [Example 21, 1-((2R,4S)-4-(4-amino-3-((1-ethyl-2-methyl-1H-benzo[d]imidazol-5-yl)ethynyl)-1H-pyrazolo[4,3-c]pyridin-1-yl)-2-(methoxymethyl)pyrrolidin-1-yl)prop-2-en-1-one] is no less than 7.00; for `C=CC(=O)N1C[C@@H](n2nc(C#Cc3ccc4[nH]c(C)nc4c3)c3c(N)nccc32)C[C@@H]1COC` [Example 22, 1-((2R,4S)-4-(4-amino-3-((2-methyl-1H-benzo[d]imidazol-5-yl)ethynyl)-1H-pyrazolo[4,3-c]pyridin-1-yl)-2-(methoxymethyl)pyrrolidin-1-yl)prop-2-en-1-one] it is no less than 7.00; for `C=CC(=O)N1C[C@@H](n2nc(C#Cc3ccc4c(c3)ncn4CC)c3c(N)nccc32)C[C@@H]1COC` [Example 23, 1-((2R,4S)-4-(4-amino-3-((1-ethyl-1H-benzo[d]imidazol-5-yl)ethynyl)-1H-pyrazolo[4,3-c]pyridin-1-yl)-2-(methoxymethyl)pyrrolidin-1-yl)prop-2-en-1-one] it is no less than 7.00.
For `C=CC(=O)N1C[C@@H](n2nc(C#Cc3ccc4c(c3)ncn4C3CC3)c3c(N)nccc32)C[C@@H]1COC` [Example 24, 1-((2R,4S)-4-(4-amino-3-((1-cyclopropyl-1H-benzo[d]imidazol-5-yl)ethynyl)-1H-pyrazolo[4,3-c]pyridin-1-yl)-2-(methoxymethyl)pyrrolidin-1-yl)prop-2-en-1-one] the value was no less than 7.00; for `C=CC(=O)N1C[C@@H](n2nc(C#Cc3ccc4c(c3)nc(C)n4C)c3c(N)nccc32)C[C@@H]1COC` [Example 25, 1-((2R,4S)-4-(4-amino-3-((1,2-dimethyl-1H-benzo[d]imidazol-5-yl)ethynyl)-1H-pyrazolo[4,3-c]pyridin-1-yl)-2-(methoxymethyl)pyrrolidin-1-yl)prop-2-en-1-one], no less than 7.00.
